Where no end group is shown, it is not given here.
Assays:
Type in all cases: cell-based, human
SIX1::GFP cells [1] = assay: High throughput screen for compounds that promote placode induction; details: added at day 3, imaged at day 6
Description: High throughput screen for compounds that promote placode induction: SIX1::GFP cells were cultured according to the PIP-E6 protocol. 1280 test compounds were screened for their ability to enhance placode induction. Each test compound was added to the cell culture media at day 3, and cells were imaged to determine the level of placode induction at day 6. (FIG. 60).

hESC = assay: Placode induction from hESC (N-SB versus PIP, SIX1 expression); details: for placode fate: high concentrations, starting at day 3 of PIP
Description: A timed withdrawal of the BMP inhibitor Noggin during N-SB differentiation was also tested to determine if placodal fates could be induced via derepressing endogenous BMP signaling. A time course analysis was performed during which Noggin was removed at different time points of the N-SB protocol (FIG. 28A).
Withdrawal of the BMP inhibitor noggin during N-SB differentiation may enhance the emergence of placodal fates by de-repressing endogenous BMP signaling. To this end, a time course study was performed by removing noggin at different time points of the NSB protocol (FIG. 11A) while monitoring the induction of placodal marker (FIG. 11B) trophoectodermal, neurectodermal by qRT-PCR analysis at day 11 of differentiation. Withdrawal of noggin at day 2 or 3 of differentiation yielded efficient induction of Six1 while noggin withdrawal at day 1 of differentiation lead to the induction of Eya1 in the absence of Six1 expression.
Neural Induction and placode induction: Feeder-free neural induction was carried out as previously described (Chambers et al., 2009). Briefly, hESCs cultures were disaggregated using accutase for 20 minutes, washed using hESCs media and pre-plated on gelatin for 1 hour at 37° C. in the presence of ROCK inhibitor to remove MEFs. The non-adherent hESCs were washed and plated on matrigel at a density of 60,000 cells/cm2 on matrigel (BD) coated dishes in MEF conditioned hESCs media (CM) spiked with 10 ng/mL of FGF-2 and ROCK-inhibitor. The ROCK inhibitor was withdrawn after 24 hours, and hESCs were allowed to expand in CM for 2 days or until they were 95% confluent. The initial differentiation media conditions included knock out serum replacement (KSR) media with 10 μM TGF-β inhibitor (SB431542, Tocris) and 250 ng/mL of Noggin (R&D). Upon day 5 of differentiation, increasing amounts of N2 media (25%, 50%, and 75%) were added to the KSR media every two days while maintaining […] of Noggin and TGF-β inhibitor. Similar results could be obtained when using KSR-free conditions (E6 medium (Chen et al., 2011)) following adjustments in BMP signaling; data not shown). For placode induction, Noggin was removed at day3 of differentiation. In some experiments, BMP-4 (R&D 50 ng/ml), Noggin (R&D 250 ng/ml), DKK-1 (R&D 100 ng/ml), FGF8 (R&D 50 ng/ml), SU5402 (Tocris 10 μM), Wnt-3a (R&D 50 ng/ml), DAPT (Tocris, 10 μM), CHIR99021 (Stemgent, 3 μM), Cyclopamine (Tocris, 10 μM), Sonic Hedgehog (C25II-R&D 100 ng/ml), and Purmorphamine (Stemgent, 1 μM), were added.
Microscopy, antibodies, and flow cytometry: Cells were fixed using 4% paraformaldehyde for 15 minutes, washed with PBS, permeabilized using 0.3% Triton X in PBS, and blocked using 1% BSA. Primary antibodies used for microscopy included PAX6 (Covance, DSHB), TUJ1 (Covance), BRN3A (Chemicon), AP2a (DSHB), HNK1 (Sigma), PAX3 (DSHB), SIX1 (ABR, Atlas), ISL1 (DSHB), PERIPHERIN (Santa Cruz), GSU (gift A. McNeilly), CRYAB (Chemicon), DACH1 (Proteintech), EYA1 (gift Kawakami), E-CADHERIN (Abcam), FSH (gift A. McNeilly), GATA2 (Abcam), chick GFP (Abcam), hNCAM (Santa Cruz), GLUTAMATE (Sigma), KRT14 (Labvision), SIX6 (Atlas), LHX3 (Abcam), OVOL2 (Aviva), TFAP2A (DSHB), FOXG1 (gift E. Lai), hCA (Stem Cells), and Ki67 (Sigma). Appropriate Alexa 488, Alexa 568, Alexa 647 secondary antibodies (Molecular Probes) and/or DAPI counterstaining was used for visualization. For Flow Cytometry, cells were mechanically dissociated after exposure to accutase for 20 min at 25° C. To eliminate dead cell populations in FACS analysis, we used DAPI or 7-AAD according to manufacturer's recommendation. Cells were analyzed using FACScan (Becton Dickinson) and FlowJo software (Tree Star, Inc.).

[2] = test system: SIX1::H2B-GFP reporter cells; assay: PIP-E6 placode induction in E8/E6 media
Source text: PIP protocol using E8/E6 cell culture media: E8/E6 cell culture media (Essential8™/Essential6™, Nat Methods. 2011 May; 8(5):424-9) comprises the ingredients DMEM/F12, ascorbic acid, selenum, insulin, NaHCO3, transferrin, FGF2 and TGFβ. […] The present example describes a modified PIP protocol that utilizes the BMP deficient E8/E6 media.
A Six1 knock in GFP reporter cell line (SIX1::H2B-GFP) was developed to monitor when cells have been transformed to a placode fate. (FIGS. 41A-41E). Culturing the reporter cells in E8/E6 media according to the KSR PIP protocol described herein, in which cells were cultured in media comprising the SMAD inhibitors SB431542 and LDN193189, wherein LDN193189 was withdrawn after 2 days of culture, yielded low levels of placode cells after 11 days of culture. (FIGS. 42A-42B). BMP4, which is not present in E8/E6 media, is necessary for cells to differentiate into non-neural ectoderm and placode, as evidenced by expression of the marker AP2. (FIGS. 43A-43C). […] (FIGS. 44A-44C). […] (FIGS. 45A-45B). […] (FIGS. 46 and 47). Although the yield of induced placode cells was low using the PIP-E6 protocol, the induction was highly consistent compared to the KSR PIP protocol. (FIG. 48).
In order to make the trigeminal placode fate the default fate when culturing using the PIP-E6 protocol, PIP-E6 was modified by adding CHIR (Wnt activator) to the culture protocol. […] (FIGS. 49A-49B). FIG. 50 depicts the pituitary, lens and trigeminal placodes that can be induced using the PIP-E6 culture protocol.

pre-placode cells = assay: Lens placode specification (PITX3 qRT-PCR); details: added days 7-11, read at day 16
Description: The impact of four developmental signaling pathways on lens placode specification was tested by using activators and inhibitors of BMP, FGF, WNT, and Hedgehog signaling. To quantify the induction of lens placode fate, the lens precursor marker PITX3 expression was monitored at day 16 of differentiation (FIG. 37B). […] A role for BMPs and FGFs has been previously proposed in developmental studies in the chick (Sjödal et al., 2007). […] The characteristic layering of lens fibers (FIG. 36H, right panel) mimicked the structural properties of developing lens in vivo.

SIX1::GFP cells [3] = assay: PIP-E6 pituitary induction and hormone release; details: for number of putative pituitary stem cells (Ki67 and Sox2): days 6-14
Description: Induction of anterior pituitary gland cells: Pituitary placode cells were induced by culturing SIX1::GFP cells according to the PIP-E6 protocol, wherein pituitary factors SHH, FGF8, FGF10 and/or hypothalamus CM were supplemented in the culture media from days 6-15.
Induction of anterior pituitary gland cells: SIX1::GFP hPSCs were cultured according to a modified PIP-E6 protocol, wherein pituitary factors such as FGF8, FGF10 or SHH, etc., were included in the culture media from days 6-14. Cells were sorted based on expression of SIX1::GFP, and were replated at a concentration of 10,000 cells/cm^2 on PO/L/F, and were incubated with small molecule/growth factors for 2 weeks. (FIG. 68). […] (FIG. 69).

hESC derived FP = assay: A/P respecification of hESC derived FP by caudalizing factors
Description: For MS5 induction, established methods previously reported were used (Perrier et al., 2004). Feeder free neural induction was carried out as previously described (Chambers et al., 2009). Briefly, hESCs cultures were disaggregated using accutase for 20 minutes, washed using hESCs media and pre-plated on gelatin for 1 hour at 37° C. in the presence of ROCK inhibitor to remove MEFs. The nonadherent hESCs were washed and plated on matrigel at a density of 20,000 cells/cm2 on matrigel (BD) coated dishes in MEF conditioned hESCs media (CM) spiked with 10 ng/mL of FGF-2 and ROCK-inhibitor. The ROCK inhibitor was withdrawn, and hESCs were allowed to expand in CM for 3 days or until they were nearly confluent. The initial differentiation media conditions included knock out serum replacement (KSR) media with […] TGF-b inhibitor (SB431542, Tocris) and 500 ng/mL of Noggin (R&D). Upon day 5 of differentiation, increasing amounts of N2 media (25%, 50%, 75%) was added to the KSR media every two days while maintaining 500 ng/mL of Noggin and TGF-b inhibitor. For FP induction, Sonic C25II was added at 200 ng/ml. In some experiments, DKK-1 (R&D 100 ng/ml) FGF8 (R&D 50 ng/ml), Wnt-1 (Peprotech 50 ng/ml) and Retinoic Acid (R&D 1 uM) were added.
The inventors contemplated the use of SIX6 as a putative marker of anterior FP identity. Thus SIX6 status of the hESC derived FP was used to mark respecification in response to known caudalizing agents such as FGF8, Wnt-1, and Retinoic Acid. Each of these caudalizing factors was added in combination with SHH and the resulting tissue was assessed for expression of the FP markers FOXA2 and NETRIN-1, the AN marker BF1, and putative anterior FP marker SIX6. FP generation was found not compromised in the presence of caudalizing factors.
The inventors discovered that different factors had varied effects on marker expression (FIG. 20C).
As mentioned above, studies had identified different enhancers that directed SHH expression to different A/P region along ventral axis (Jeong et al., 2008). […] In the absence of caudalizing factors (SHH C25II alone), LacZ expression was observed herein following transfection with the SBE2 but not the SBE1 enhancer supporting the hypothesis that hESC derived FP is anterior by default (FIG. 20D). In contrast SBE2 activity was abolished upon treatment with Wnt1 or FGF8 while SBE1 activity was induced under these conditions.

CN1CCC(c2c[nH]c3ccc(O)cc23)CC1 [BRL-54443]
placode induction (SIX1::GFP cells [1]): promoting placode induction

Cc1c[nH]c(-c2cnc(NCCNc3ccc(C#N)cn3)nc2-c2ccc(Cl)cc2Cl)n1 [CHIR99021]
placode fate (hESC): suppressed placode
default placode fate ([2]; days 2-4 of the PIP-E6 protocol): induction of trigeminal placodes

O.c1cnc2c(c1)ccc1cccnc12 [Phenanthroline monohydrate]
placode induction (SIX1::GFP cells [1]): promoting placode induction

Cc1c[nH]c(/C=C2\C(=O)Nc3ccccc32)c1CCC(=O)O [SU5402]
TFAP2A expression (hESC; day 3-11 of PIP): maintaining
emergence of SIX1+ clusters (hESC; day 3-11 of PIP): suppressed
placode marker (SIX1) gene expression (hESC; day 11): complete loss
KRT14 mature keratinocyte marker (hESC; long-term cultures (day 42-60)): robust induction
PITX3 expression (pre-placode cells): significantly induced

FGF2: growth factor
number of putative pituitary stem cells (Ki67 and Sox2) (SIX1::GFP cells [3]): may increase

somatocrinin: external stimulus causing growth hormone release (YADAIFTNSYRKVLGQLSARKLLQDIMSRQQGESNQERGARARL; ends and bridges not checked; UniProt P01286 32-75, looked up)
growth hormone (GH) release (SIX1::GFP cells [3]; hormone expressing cells): released growth hormone (GH)

B1: BMP4: recombinant bone morphogenetic protein-4, activator of BMP signaling (protein, UniProt P12644 293-408, looked up)
Bone morphogenetic protein 4: SPKHHSQRARKKNKNCRRHSLYVDFSDVGWNDWIVAPPGYQAFYCHGDCPFPLADHLNSTNHAIVQTLVNSVNSSIPKACCVPTELSAISMLYLDEYDKVVLKNYQEMVVEGCGCR
placode fate (hESC): suppressed placode
CDX2 induction (hESC; in the presence of SB): triggered induction of CDX2
PITX3 expression (pre-placode cells): significantly induced
cell fate induced ([2]; 5 ng/ml, with SB431542, withdrawn after 3 days): placode development
yield of placode precursors ([2]; 5 ng/ml, withdrawn after 3 days versus 1 or 2 days, 6 total days): highest yield of placode precursors
cell fate induced ([2]; 20 ng/ml): induction of non-neural ectoderm

B2: FGF8: caudalizing factor / pituitary patterning factor (protein, UniProt P55075 23-233, looked up)
Fibroblast growth factor 8: QEGPGRGPALGRELASLFRAGREPQGVSQQHVREQSLVTDQLSRRLIRTYQLYSRTSGKHVQVLANKRINAMAEDGDPFAKLIVETDTFGSRVRVRGAETGLYICMNKKGKLIAKSNGKGKDCVFTEIVLENNYTALQNAKYEGWYMAFTRKGRPRKGSKTRQHQREVHFMKRLPRGHHTTEQSLRFEFLNYPPFTRSLRGSQRTWAPEPR
ASCL1 expression (hESC; pre-placode cells): enriches
SBE1 activity (hESC derived FP; SHH enhancer LacZ construct): induced
SBE2 activity (hESC derived FP; SHH enhancer LacZ construct): abolished
SIX6 expression (hESC derived FP; in combination with SHH): significant reduction
number of putative pituitary stem cells (Ki67 and Sox2) (SIX1::GFP cells [3]): may increase

— US12618044B2, “Specification of functional cranial placode derivatives from human pluripotent stem cells” (MEMORIAL SLOAN-KETTERING CANCER CENTER, priority 2013, dated 2026)
